Each block holds one molecule with its values, some of them ahead of it. Active and inactive are the calls of the source.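 Rule for the calls: active = statistically significant rise in LC3 puncta area per cell versus the same autophagy inducer given alone; inactive = the rest.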
Columns and labels:
[1] = autophagy inducers by MAP1LC3 foci formation, imaging, murine bone marrow-derived macrophages, green fluorescent protein-tagged MAP1LC3 (AID 1963955); settings: mouse BMDM GFP-LC3 puncta imaging, 4 h, stronger effect = higher value
[2] = tested on: mouse BMDM GFP-LC3 puncta imaging, 4 h; test: as above

SMILES: CS(C)=O
LC3 puncta area per cell ([1]; no co-treatment): 7.38 um2/cell (inactive)
LC3 puncta area per cell ([1]; with HBSS): 9.2 um2/cell

EC50 ([2]; no co-treatment, at 20 µM): 44.6 µM
EC50 ([2]; no co-treatment, at 40 µM): 44.6 µM
EC50 ([2]; with HBSS, at 20 µM): 22.7 µM
EC50 ([2]; with HBSS, at 40 µM): 22.7 µM
SMILES: CCC(C)(C)C(=O)C(=O)N1CCCC[C@H]1C(=O)N[C@H](CCc1ccc(OC)cc1)C(=O)N1[C@@H]2CC[C@H]1CC(Nc1nc(NCCc3sc(N)nc3C)nc(N3CCn4ncnc4C3)n1)C2 (stereo not given in full)

SMILES: CCC(C)(C)C(=O)C(=O)N1CCCC[C@H]1C(=O)N[C@H](CCc1ccc(OC)cc1)C(=O)N1[C@@H]2CC[C@H]1CC(Nc1nc(NCCc3ccccc3)nc(N3CCn4ncnc4C3)n1)C2 (stereo not given in full)
LC3 puncta area per cell ([1]; at 20 µM, no co-treatment): 5.15 um2/cell (inactive)
LC3 puncta area per cell ([1]; at 20 µM, with HBSS): 10.8 um2/cell (inactive)
LC3 puncta area per cell ([1]; at 40 µM, no co-treatment): 5.34 um2/cell (inactive)
LC3 puncta area per cell ([1]; at 40 µM, with HBSS): 11.1 um2/cell
